Reference: ChEMBL document CHEMBL1201862, “PubChem BioAssay data set” (2004)
Active and inactive are the calls of the source.

Columns and labels:
[1] = molecular target: Glucose-6-phosphate 1-dehydrogenase (Homo sapiens, UniProt P11413); test: inhibition of Homo sapiens G6PD, dose series – biochemical, fluorescence, selectivity assay for P. falciparum G6PD inhibitor project, dose response (AID 504792); assay type: functional
Genome polyprotein = Genome polyprotein (dengue virus type 2, UniProt P29990); test: flavivirus cap methylation enzyme inhibition – biochemical, confirmation dose response, primary screen (AID 588689); assay type: functional
Cytochrome P450 3A4 [2] = molecular target: T1, Cytochrome P450 3A4 (Homo sapiens, UniProt P08684);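 also: CYP3A4 tested as one member of a cytochrome P450 panel screen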
Cytochrome P450 2C19 = Cytochrome P450 2C19 (Homo sapiens, UniProt P33261); test: Cytochrome panel assay with activity outcomes. Panel member name: p450-cyp2c19 Compounds with AC50 equal or less than 10 uM are considered active; assay type: functional
Cytochrome P450 2C9 [3] = molecular target: T2, Cytochrome P450 2C9 (Homo sapiens, UniProt P11712)
Cytochrome P450 1A2 = molecular target: T3, Cytochrome P450 1A2 (Homo sapiens, UniProt P05177);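 also: PubChem cytochrome P450 panel assay, CYP1A2 panel member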
T3 sequence (P05177 whole entry): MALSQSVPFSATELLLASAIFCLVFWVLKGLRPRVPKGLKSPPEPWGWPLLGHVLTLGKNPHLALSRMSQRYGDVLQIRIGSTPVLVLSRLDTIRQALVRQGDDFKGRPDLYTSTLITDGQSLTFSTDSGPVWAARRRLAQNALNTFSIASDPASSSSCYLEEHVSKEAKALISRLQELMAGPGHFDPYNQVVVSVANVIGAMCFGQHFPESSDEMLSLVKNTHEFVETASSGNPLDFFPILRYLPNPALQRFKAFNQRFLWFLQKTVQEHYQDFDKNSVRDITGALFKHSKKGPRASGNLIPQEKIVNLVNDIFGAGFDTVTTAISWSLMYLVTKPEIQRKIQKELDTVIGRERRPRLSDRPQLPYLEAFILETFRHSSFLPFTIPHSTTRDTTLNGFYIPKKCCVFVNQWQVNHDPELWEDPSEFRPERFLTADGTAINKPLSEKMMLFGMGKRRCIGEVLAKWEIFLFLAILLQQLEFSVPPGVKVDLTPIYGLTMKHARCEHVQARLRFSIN

Cytochrome P450 3A4 [4] = molecular target: T1, Cytochrome P450 3A4; remark: listed apart in the source
Cytochrome P450 2C9 [5] = molecular target: T2, Cytochrome P450 2C9; remark: listed apart in the source
Cytochrome P450 2D6 = Cytochrome P450 2D6 (Homo sapiens, UniProt P10635);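 also: CYP2D6 member of a cytochrome P450 panel assay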
SUMO-activating enzyme = SUMO-activating enzyme (Homo sapiens, UniProt Q9UBT2); test: blockers of UBC9-mediated SUMO conjugation – biochemical, AlphaScreen, SUMOylation inhibitor project, confirmation (AID 2018); assay type: functional
Bcl-2-related protein A1 = molecular target: T4, Bcl-2-related protein A1 (Mus musculus, UniProt Q07440); assay type: functional;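 also: confirmatory dose–response counterscreen on Bfl-1, used to check hits from a UBC13 polyubiquitin inhibitor campaign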
T4 sequence (Q07440 whole entry): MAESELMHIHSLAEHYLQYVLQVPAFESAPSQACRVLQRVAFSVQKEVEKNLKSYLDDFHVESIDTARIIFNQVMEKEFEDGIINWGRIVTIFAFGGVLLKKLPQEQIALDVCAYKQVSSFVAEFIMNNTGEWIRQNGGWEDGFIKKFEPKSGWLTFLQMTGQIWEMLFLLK

[6] = molecular target: T5, Ubiquitin-conjugating enzyme E2 N (Homo sapiens, UniProt P61088); assay type: functional
T5 sequence (P61088 whole entry): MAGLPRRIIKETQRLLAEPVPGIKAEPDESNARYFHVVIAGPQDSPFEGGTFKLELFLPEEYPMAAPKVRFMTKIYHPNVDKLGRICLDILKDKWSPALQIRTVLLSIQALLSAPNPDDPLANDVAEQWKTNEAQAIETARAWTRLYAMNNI

[7] = molecular target: T5, Ubiquitin-conjugating enzyme E2 N; assay type: functional; remark: listed apart in the source
[8] = molecular target: T6, Heat shock factor protein 1 (Mus musculus, UniProt P38532); test: decrease of HSF1-responsive luciferase luminescence – cell-based, NIH3T3, dose retest, confirmation (AID 2382); assay type: functional;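 also: NIH3T3 fibroblasts with HSF1-driven luciferase reporter stressed by proteasome inhibitor MG132; luminescence from HSF1-driven luciferase expression after 8 hours of MG132 stress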
T6 sequence (P38532 whole entry): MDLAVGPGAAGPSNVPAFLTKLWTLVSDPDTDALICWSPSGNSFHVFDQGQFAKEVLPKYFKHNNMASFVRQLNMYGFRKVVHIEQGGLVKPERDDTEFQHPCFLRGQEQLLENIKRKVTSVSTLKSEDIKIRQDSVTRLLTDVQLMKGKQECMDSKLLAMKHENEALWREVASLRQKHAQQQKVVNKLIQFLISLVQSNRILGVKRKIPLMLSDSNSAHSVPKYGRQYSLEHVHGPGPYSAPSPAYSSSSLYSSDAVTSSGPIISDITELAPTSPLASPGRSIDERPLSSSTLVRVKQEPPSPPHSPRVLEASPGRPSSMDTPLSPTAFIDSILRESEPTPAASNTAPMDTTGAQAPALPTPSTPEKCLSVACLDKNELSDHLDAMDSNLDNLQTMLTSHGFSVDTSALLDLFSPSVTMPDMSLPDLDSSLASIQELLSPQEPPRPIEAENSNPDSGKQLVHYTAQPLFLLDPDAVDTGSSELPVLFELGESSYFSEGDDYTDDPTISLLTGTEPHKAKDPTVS

[9] = HEK-293T cell viability reduction – luminescence, B-cell screen hits, cytotoxicity control for BCR NF-kB inhibitor project, dose response (AID 489021); assay type: functional, cell-based;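 also: HEK-293T cells carrying an NF-kB luciferase reporter; cells exposed to compound for about 14 hours before viability readout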
[10] = molecular target: T7, Short transient receptor potential channel 4 (Mus musculus, UniProt Q9QUQ5); test: calcium entry via TRPC4 opening agents – cell-based, HEK293 TRPC4/mu-opioid, Fluo-4 calcium, dose response (AID 434937); assay type: functional
T7 sequence (Q9QUQ5 whole entry): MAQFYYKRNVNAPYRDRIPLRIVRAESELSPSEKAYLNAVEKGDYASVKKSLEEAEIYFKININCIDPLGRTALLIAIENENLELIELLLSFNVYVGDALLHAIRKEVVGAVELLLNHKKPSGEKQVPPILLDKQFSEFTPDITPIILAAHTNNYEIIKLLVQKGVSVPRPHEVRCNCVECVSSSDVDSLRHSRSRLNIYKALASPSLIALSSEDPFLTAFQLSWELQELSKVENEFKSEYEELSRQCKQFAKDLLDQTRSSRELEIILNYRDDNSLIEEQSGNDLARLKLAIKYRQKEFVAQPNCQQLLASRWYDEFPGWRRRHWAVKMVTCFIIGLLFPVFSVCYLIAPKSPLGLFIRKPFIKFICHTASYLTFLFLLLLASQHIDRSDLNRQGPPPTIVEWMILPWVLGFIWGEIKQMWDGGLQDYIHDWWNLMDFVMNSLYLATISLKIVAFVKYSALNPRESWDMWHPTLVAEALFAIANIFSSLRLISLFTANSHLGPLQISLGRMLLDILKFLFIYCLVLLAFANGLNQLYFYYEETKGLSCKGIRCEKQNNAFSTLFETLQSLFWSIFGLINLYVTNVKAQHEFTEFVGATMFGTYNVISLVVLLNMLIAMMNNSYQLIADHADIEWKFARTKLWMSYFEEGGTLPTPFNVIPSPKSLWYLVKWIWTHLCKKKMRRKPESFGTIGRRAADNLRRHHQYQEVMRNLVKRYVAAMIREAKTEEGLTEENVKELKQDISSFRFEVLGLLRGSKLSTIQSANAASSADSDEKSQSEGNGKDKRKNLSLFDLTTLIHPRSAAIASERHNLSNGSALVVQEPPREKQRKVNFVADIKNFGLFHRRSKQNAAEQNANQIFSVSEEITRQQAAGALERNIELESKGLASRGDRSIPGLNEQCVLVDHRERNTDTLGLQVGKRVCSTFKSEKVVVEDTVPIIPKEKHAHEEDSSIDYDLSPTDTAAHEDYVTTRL

Nonstructural protein 1 = Nonstructural protein 1 (Influenza A virus, UniProt Q194T2); assay type: functional, Influenza A virus (A/California/07/2009(H1N1))
[11] = molecular target: T8, Mannose-6-phosphate isomerase (Homo sapiens, UniProt P34949); test: MPI inhibition at elevated mannose 6-phosphate – biochemical, fluorescence intensity, high mannose 6-phosphate, primary screen (AID 1220)
T8 sequence (P34949 whole entry): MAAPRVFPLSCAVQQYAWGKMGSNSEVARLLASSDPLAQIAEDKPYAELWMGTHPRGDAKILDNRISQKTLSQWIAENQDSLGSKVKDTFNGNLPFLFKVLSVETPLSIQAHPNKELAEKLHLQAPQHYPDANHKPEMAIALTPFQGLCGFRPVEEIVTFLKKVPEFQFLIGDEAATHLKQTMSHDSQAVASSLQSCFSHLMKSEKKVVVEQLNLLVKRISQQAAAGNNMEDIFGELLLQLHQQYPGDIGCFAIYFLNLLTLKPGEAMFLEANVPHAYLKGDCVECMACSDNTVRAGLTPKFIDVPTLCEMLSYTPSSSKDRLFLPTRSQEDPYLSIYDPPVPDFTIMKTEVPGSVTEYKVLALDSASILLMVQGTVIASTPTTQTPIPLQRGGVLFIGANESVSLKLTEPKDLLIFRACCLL

[12] = reduction of Shn3 3'UTR-driven luciferase in osteoblasts – cell-based, Clone20 osteoblasts, firefly luciferase, cherry-picked, dose response (AID 624132); assay type: functional;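 also: firefly luciferase luminescence from reporter carrying the Shn3 3'UTR in osteoblasts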
[13] = loss of viability in HepG2 cells – cell-based, CellTiter-Glo, cherry-picked, cytotoxicity control for Shn3 inhibitor project, dose response (AID 624134); assay type: functional
[14] = non-specific 3'UTR reporter inhibition in Clone20-Shn3RL – cell-based, Renilla luciferase, cherry-picked, counter-screen for Shn3 inhibitor project, dose response (AID 624133); assay type: functional

Sequence of Glucose-6-phosphate 1-dehydrogenase (P11413 whole entry): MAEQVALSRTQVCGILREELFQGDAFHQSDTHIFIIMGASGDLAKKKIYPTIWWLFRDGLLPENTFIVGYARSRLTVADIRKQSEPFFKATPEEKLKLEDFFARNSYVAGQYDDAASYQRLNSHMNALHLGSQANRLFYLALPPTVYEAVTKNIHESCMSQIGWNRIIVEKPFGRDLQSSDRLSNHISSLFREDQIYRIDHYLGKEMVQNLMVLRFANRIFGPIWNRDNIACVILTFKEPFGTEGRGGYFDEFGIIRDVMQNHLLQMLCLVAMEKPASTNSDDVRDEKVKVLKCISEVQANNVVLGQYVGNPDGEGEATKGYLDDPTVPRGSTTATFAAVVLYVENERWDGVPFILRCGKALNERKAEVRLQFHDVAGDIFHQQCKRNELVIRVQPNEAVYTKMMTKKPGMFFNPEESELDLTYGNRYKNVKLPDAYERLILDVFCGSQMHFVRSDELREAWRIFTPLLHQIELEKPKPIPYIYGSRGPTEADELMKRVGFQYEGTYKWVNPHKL
T1 sequence (P08684 whole entry): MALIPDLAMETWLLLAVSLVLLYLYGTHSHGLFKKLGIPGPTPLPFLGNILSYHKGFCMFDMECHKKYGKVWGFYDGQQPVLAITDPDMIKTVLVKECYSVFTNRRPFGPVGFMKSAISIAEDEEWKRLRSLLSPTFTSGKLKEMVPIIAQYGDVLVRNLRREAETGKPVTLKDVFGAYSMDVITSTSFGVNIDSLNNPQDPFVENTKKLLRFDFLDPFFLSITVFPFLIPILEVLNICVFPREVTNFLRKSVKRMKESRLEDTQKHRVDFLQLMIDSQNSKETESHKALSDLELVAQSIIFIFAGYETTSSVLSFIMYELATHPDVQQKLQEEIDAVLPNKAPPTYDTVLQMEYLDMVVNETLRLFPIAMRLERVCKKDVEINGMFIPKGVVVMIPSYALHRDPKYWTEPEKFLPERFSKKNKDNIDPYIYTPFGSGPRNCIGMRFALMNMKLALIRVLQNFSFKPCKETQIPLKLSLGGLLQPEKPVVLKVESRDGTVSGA
Sequence of Cytochrome P450 2C19 (P33261 whole entry): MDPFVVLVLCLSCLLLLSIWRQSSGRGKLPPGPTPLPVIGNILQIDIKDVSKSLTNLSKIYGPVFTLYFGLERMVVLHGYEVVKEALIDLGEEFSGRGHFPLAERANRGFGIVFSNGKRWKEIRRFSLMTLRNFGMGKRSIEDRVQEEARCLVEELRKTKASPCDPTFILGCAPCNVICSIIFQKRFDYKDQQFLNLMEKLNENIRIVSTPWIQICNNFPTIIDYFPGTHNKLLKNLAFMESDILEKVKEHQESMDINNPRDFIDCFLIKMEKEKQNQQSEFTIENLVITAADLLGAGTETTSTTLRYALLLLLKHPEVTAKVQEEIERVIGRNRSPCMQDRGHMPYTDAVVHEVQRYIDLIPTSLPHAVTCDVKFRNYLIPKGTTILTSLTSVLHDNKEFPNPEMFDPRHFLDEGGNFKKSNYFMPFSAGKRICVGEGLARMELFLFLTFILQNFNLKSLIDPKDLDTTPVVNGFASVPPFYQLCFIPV
T2 sequence (P11712 whole entry): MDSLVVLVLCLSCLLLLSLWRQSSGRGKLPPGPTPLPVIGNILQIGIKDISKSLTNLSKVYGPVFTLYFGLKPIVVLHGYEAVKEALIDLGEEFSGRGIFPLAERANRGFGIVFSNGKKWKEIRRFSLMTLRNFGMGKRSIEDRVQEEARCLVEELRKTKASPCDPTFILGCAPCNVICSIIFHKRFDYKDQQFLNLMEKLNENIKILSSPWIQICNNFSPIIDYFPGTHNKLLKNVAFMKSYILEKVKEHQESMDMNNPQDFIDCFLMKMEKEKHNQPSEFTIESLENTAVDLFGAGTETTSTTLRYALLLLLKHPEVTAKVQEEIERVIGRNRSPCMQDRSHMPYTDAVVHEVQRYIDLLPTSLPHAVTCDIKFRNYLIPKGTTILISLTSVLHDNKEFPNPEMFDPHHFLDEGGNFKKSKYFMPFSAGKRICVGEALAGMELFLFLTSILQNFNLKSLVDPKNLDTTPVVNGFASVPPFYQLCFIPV
Sequence of Nonstructural protein 1 (Q194T2 whole entry): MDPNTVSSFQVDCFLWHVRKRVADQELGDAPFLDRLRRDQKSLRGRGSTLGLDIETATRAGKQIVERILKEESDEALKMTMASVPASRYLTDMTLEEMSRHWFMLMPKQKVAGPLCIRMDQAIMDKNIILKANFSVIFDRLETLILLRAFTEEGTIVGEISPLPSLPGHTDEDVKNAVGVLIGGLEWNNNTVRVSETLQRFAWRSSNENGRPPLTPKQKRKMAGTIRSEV
Sequence of SUMO-activating enzyme (Q9UBE0 whole entry): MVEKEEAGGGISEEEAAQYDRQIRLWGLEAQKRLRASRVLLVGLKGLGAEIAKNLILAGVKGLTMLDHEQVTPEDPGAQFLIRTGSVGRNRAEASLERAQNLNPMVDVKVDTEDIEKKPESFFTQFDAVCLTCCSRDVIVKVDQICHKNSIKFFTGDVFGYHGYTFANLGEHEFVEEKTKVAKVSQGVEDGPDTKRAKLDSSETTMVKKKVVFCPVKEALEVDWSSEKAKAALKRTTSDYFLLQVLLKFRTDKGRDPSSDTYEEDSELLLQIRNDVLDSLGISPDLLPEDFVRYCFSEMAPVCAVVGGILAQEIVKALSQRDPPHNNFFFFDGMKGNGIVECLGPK
Sequence of SUMO-activating enzyme (Q9UBT2 whole entry): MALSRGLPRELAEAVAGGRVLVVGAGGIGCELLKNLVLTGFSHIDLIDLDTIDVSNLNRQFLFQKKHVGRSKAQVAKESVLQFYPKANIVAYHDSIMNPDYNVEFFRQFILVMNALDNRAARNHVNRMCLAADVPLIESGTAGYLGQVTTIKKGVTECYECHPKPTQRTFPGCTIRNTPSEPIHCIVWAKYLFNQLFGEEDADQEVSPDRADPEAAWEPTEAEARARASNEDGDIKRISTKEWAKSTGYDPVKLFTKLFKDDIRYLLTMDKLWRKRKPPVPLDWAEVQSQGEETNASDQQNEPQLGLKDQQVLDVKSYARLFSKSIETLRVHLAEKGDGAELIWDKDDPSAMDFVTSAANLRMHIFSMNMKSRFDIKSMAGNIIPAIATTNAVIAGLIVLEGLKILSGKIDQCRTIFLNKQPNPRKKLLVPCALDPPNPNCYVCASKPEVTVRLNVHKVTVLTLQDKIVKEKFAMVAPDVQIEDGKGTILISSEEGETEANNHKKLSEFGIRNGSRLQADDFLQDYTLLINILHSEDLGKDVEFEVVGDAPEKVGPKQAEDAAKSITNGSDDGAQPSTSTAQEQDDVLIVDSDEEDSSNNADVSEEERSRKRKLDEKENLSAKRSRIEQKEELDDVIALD
Sequence of Cytochrome P450 2D6 (P10635 whole entry): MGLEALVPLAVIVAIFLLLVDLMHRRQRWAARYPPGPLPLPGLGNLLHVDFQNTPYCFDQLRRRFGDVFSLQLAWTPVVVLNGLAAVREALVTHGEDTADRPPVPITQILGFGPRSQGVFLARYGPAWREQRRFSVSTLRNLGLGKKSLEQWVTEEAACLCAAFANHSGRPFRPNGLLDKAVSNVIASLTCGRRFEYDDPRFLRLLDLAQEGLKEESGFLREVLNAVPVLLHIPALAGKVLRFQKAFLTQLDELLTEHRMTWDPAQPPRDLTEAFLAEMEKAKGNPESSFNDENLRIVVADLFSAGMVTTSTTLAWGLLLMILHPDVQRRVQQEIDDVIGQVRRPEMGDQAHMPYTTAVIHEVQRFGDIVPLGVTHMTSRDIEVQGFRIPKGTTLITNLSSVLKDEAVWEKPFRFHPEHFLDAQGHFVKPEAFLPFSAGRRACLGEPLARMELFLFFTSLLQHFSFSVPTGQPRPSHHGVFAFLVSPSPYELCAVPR
Sequence of Genome polyprotein (P29990 2492-3391 limits assumed): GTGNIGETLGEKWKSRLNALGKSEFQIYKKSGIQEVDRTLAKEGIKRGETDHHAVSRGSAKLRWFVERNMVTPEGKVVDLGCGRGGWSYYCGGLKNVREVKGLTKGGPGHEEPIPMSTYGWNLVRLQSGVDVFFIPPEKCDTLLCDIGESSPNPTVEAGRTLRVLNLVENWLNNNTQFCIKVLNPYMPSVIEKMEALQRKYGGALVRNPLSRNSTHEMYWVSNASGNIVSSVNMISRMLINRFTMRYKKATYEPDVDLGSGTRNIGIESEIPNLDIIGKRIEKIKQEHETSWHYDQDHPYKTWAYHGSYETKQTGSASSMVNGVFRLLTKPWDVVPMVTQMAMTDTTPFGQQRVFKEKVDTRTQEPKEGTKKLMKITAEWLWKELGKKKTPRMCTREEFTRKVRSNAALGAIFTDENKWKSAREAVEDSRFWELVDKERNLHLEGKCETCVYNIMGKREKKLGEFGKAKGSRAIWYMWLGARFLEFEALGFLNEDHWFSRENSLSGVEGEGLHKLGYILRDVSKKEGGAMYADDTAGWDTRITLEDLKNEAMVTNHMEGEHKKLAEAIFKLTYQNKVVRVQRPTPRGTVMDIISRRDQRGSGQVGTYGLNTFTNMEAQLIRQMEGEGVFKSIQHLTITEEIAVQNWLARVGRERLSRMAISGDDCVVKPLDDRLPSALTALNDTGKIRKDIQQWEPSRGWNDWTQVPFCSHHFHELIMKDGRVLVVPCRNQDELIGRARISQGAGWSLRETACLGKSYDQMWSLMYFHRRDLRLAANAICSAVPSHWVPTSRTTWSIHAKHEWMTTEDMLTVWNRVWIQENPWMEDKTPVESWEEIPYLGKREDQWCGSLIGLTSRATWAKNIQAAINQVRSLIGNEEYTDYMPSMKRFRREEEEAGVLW

CN1CC[C@@]2(C)c3cc(O)ccc3N(C)[C@@H]12
IC50 [1]: 42.6 µM (inactive)
IC50 (Genome polyprotein): 22.4 µM (active)

O=C(c1cnccn1)N1CCC2(CC1)CCN(c1ccccc1)CC2
AC50 (Cytochrome P450 3A4 [2]): inconclusive

CCCCCCCCCCC/C=C\C(C)(C)/C=C\CCCC(=O)O
AC50 (Cytochrome P450 2C19; read-out: AC50): 25.1 µM (inconclusive)
AC50 (Cytochrome P450 2C9 [3]): 15.8 µM (inconclusive)
AC50 (Cytochrome P450 3A4 [2]): inconclusive

CN1CCN(c2ncc3nc(-c4ccc(F)cc4)c(=O)n(Cc4cccs4)c3n2)CC1
AC50 (Cytochrome P450 2C19; read-out: AC50): 31.6 µM (inconclusive)
AC50 (Cytochrome P450 1A2): 25.1 µM (inconclusive)
AC50 (Cytochrome P450 2C9 [3]): 0.0126 µM (inconclusive)
AC50 (Cytochrome P450 3A4 [2]): inconclusive

CNc1oc(-c2cccs2)nc1C#N
AC50 (Cytochrome P450 3A4 [4]): 28.2 µM (inconclusive)
AC50 (Cytochrome P450 2C9 [5]): inconclusive

CSc1ccc(S(=O)(=O)Nc2ccc3c4c(cccc24)CC3)cc1
AC50 (Cytochrome P450 2D6): 14.1 µM (inconclusive)
AC50 (Cytochrome P450 2C9 [5]): inconclusive

Cc1ccc(NN=C2C(=O)NC(=O)NC2=O)c([N+](=O)[O-])c1
AC50 (Cytochrome P450 2C19): inconclusive
AC50 (Cytochrome P450 1A2): 17.8 µM (inconclusive)
AC50 (Cytochrome P450 2C9 [5]): inconclusive

NC(=O)CC(NC(=O)Cc1cccc2ccccc12)c1ccc(NC2CCCCCC2)c([N+](=O)[O-])c1 (configuration not stated)
IC50 (SUMO-activating enzyme): > 100 µM (inactive)

CCc1cccc2c(C(=O)C(NC(C)CC)c3ccccc3)c[nH]c12 (configuration not stated)
IC50 (Bcl-2-related protein A1): > 20 µM (inactive)
IC50 [6]: 16.6 µM (active)
IC50 [7]: 9.25 µM (active)

COc1cccc(OCC(=O)NN=C2c3ccccc3-c3ccccc32)c1
AC50 (Cytochrome P450 2C9 [5]): inconclusive

Cc1nn(CC(=O)NCCCN2CCC(Cc3ccccc3)CC2)c(=O)c2cc(-c3ccccc3)nn12
EC50 [8]: > 195 µM (not active)
IC50 (Bcl-2-related protein A1): > 20 µM (inactive)
IC50 [6]: 11.4 µM (active)
IC50 [7]: 4.59 µM (active)

CC1(OC(=O)C2CCCC2)C(=O)C=C2C=C(c3ccsc3)N(CCc3c[nH]c4ccccc34)C=C2C1=O (configuration not stated)
IC50 [1]: 49.6 µM (inactive)

O=C(Nc1ccc(C(=O)NCCCN2CCN(c3ccc(F)cc3)CC2)cc1)C1=CSCCO1
IC50 (Bcl-2-related protein A1): > 20 µM (inactive)
IC50 [6]: 12.5 µM (active)
IC50 [7]: 10.3 µM (active)

Cc1ccc(C(=O)N2CCCC(c3ccc(Cl)cc3)=N2)cc1
IC50 [9]: > 80 µM (inactive)

COc1ccc(C(CCNCc2ccc(N(C)C)cc2)c2ccccc2OC)cc1 (configuration not stated)
EC50 [10]: 10.6 µM (active)
IC50 (Nonstructural protein 1): 20.2 µM (active)

NNC(=O)CN1C(c2ccccc2Br)=Nc2ccc(Br)cc2C1c1ccccc1 (configuration not stated)
IC50 [1]: 15.3 µM (active)

CCCCn1c(SCC(=O)NC(C)(C)C)nnc1-c1ccco1
AC50 (Cytochrome P450 2D6): 12.6 µM (inconclusive)
AC50 (Cytochrome P450 1A2): 0.316 µM (inconclusive)
AC50 (Cytochrome P450 2C9 [3]): 0.0398 µM (inconclusive)
AC50 (Cytochrome P450 3A4 [2]): inconclusive

O=C(Nc1nnc(-c2ccccc2SCc2ccccc2)s1)Nc1ccccc1F
IC50 (SUMO-activating enzyme): 46.5 µM (active)

CCCS(=O)(=O)c1ncc(Cl)c(C(=O)Nc2ccc(S(=O)(=O)Nc3ncccn3)cc2)n1
IC50 (Bcl-2-related protein A1): > 20 µM (inactive)
IC50 [6]: 14 µM (active)
IC50 [7]: > 20 µM (inactive)

Cc1cccc(Oc2coc3cc(OC(=O)c4cccs4)ccc3c2=O)c1
AC50 (Cytochrome P450 1A2): 14.1 µM (inconclusive)
AC50 (Cytochrome P450 2C9 [5]): inconclusive

CCN(CC)c1ccc(NC(=O)c2ccccc2Br)cc1S(=O)(=O)Nc1ccccc1OC
IC50 [11]: 43.7 µM (active)
IC50 [1]: > 80 µM (inactive)

NNc1nccc(Nc2ccccc2C(=O)O)n1
IC50 (Nonstructural protein 1): 8.21 µM (active)

Cc1no[n+]([O-])c1COc1cccc(/C=N/Nc2nncn2N)c1
IC50 [1]: 58.7 µM (inactive)

Oc1c(CN2CCCCC2)ccc2cccnc12
IC50 (Nonstructural protein 1): 2.05 µM (active)
AC50 [12]: 2.11 µM (active)
AC50 [13]: 52.3 µM (active)
AC50 [14]: 3.77 µM (active)
